{"source": "patent US20220007644A1", "about": "“COMPOSITIONS COMPRISING PYRIDINE CARBOXYLATE HERBICIDES WITH PHOTOSYSTEM II AND OPTIONAL HPPD INHIBITOR HERBICIDES” (Corteva Agriscience LLC, priority 2018, published 2022)", "test_in_all_cases": "Greenhouse postemergence herbicidal effect (visual injury, 20-22 d)", "assay_type_in_all_cases": "in vivo", "key": {"[1]": {"system": "ABUTH, Abutilon theophrasti (velvetleaf)", "conditions": "for % visual injury, Obs: ABUTH, Compound A 10 g/ha", "description": "(§1) Greenhouse Trial Methodology—Evaluation of Postemergence Herbicidal Effect\n(§2) Seeds of the desired test plant species were planted in a 90:10% v/v (volume/volume) mixture of PRO-MIX® BX (Premier Tech Horticulture, Quakertown, Pa., USA) and PROFILE®GREENS GRADE™ (Profile Products LLC, Buffalo Grove, Ill., USA) planting mixture, which typically has a pH of 5.2 to 6.2 and an organic matter content of at least 50 percent, in plastic pots with a surface area of 103.2 square centimeters (cm^2). In some aspects, to help ensure good germination and healthy plants, a fungicide treatment and/or other chemical or physical treatment was applied. The plants were grown for 7-36 days (d) in a greenhouse with an approximate 14-hour (h) photoperiod which was maintained at about 23° C. during the day and 22° C. during the night. Nutrients and water were added on a regular basis and supplemental lighting was provided with overhead metal halide 1000-Watt lamps as necessary. The plants were employed for testing when they reached the second or third true leaf stage.\n(§3) Emulsifiable concentrates of each of each pyridine carboxylate herbicide (Compound A or Compound B) were prepared at 100 grams acid equivalent per liter (g ae/L). The emulsifiable concentrates also included a safener, cloquintocet-mexyl, at 120 grams active ingredient per liter (g ai/L), unless otherwise noted below. An aliquot of each emulsifiable concentrate was placed in a 25 mL glass vial and diluted with an aqueous mixture of 1.25% (v/v) ACTIROB® B esterified rapeseed oil (Bayer Crop Science, Research Triangle Park, N.C., USA) or MSO® Concentrate with LECI-TECH® methylated soybean oil (Loveland Products, Loveland, Colo., USA) to obtain concentrated stock solutions at the highest application rate for each herbicide, based upon a 12 milliliter (mL) application volume at a rate of 187 liters per hectare (L/ha). The concentrated stock solutions were further diluted with an aqueous mixture of 1.25% v/v ACTIROB® B or MSO® Concentrate with LECI-TECH® to obtain stock solutions at reduced application rates for each herbicide. Spray solutions of the herbicide combinations (Compound A or Compound B plus PS-II herbicide and optional HPPD herbicide) were prepared by adding weighed amounts or aliquots of the PS-II herbicide and optional HPPD herbicide to the stock solutions of Compound A or Compound B to form 12-mL spray solutions in two- or three-way combinations.\n(§4) The spray solutions were applied to the plant material with an overhead Mandel track sprayer equipped with 8002E nozzles calibrated to deliver 187 L/ha over an application area of 0.503 square meters (m^2) at a spray height of 18 inches ([…] centimeters (cm)) above the average plant canopy. Control plants were sprayed in the same manner with the solvent blank. All pyridine carboxylate herbicide (component a) application rates are given as “g ae/ha” and all PS II inhibitor herbicide (component b) and HPPD inhibitor herbicide (component c) application rates are given as “g ai/ha.”\n(§5) The treated plants and control plants were placed in a greenhouse as described above and watered by sub-irrigation to prevent wash-off of the test compounds. After 20-22 d, the condition of the test plants as compared with that of the control plants was determined visually and scored on a scale of 0 to 100 percent where 0 corresponds to no injury and 100 corresponds to complete kill."}, "[2]": {"system": "AVEFA, Avena fatua (wild oat)", "description": "as §1, §2, §3, §4, §5"}, "[3]": {"system": "BRSNN, Brassica napus (spring rape)", "description": "as §1, §2, §3, §4, §5"}, "[4]": {"system": "BRSNW, Brassica napus (winter rape)", "description": "as §1, §2, §3, §4, §5"}, "[5]": {"system": "CHEAL, Chenopodium album L. (common lambsquarters)", "description": "as §1, §2, §3, §4, §5"}, "[6]": {"system": "CIRAR, Cirsium arvense (Canada thistle)", "conditions": "for % visual injury, Obs: CIRAR, Compound A 10 g/ha", "description": "as §1, §2, §3, §4, §5"}, "[7]": {"system": "CYPES, Cyperus esculentus (nutsedge)", "conditions": "Compound A 10 g/ha", "description": "as §1, §2, §3, §4, §5"}, "[8]": {"system": "DIGSA, Digitaria sanguinalis (large crabgrass)", "conditions": "Compound A 10 g/ha, without cloquintocet-mexyl safener", "description": "as §1, §2, §3, §4, §5"}, "[9]": {"system": "ECHCG, Echinochloa crus-galli (barnyard grass)", "conditions": "Compound A 10 g/ha, without cloquintocet-mexyl safener", "description": "as §1, §2, §3, §4, §5"}, "[10]": {"system": "IPOHE, Ipomoea hederacea (ivyleaf morningglory)", "description": "as §1, §2, §3, §4, §5"}, "[11]": {"system": "KCHSC, Kochia scoparia (kochia)", "description": "as §1, §2, §3, §4, §5"}, "[12]": {"system": "LEFCH, Leptochloa chinensis (Chinese sprangletop)", "conditions": "Compound A 10 g/ha, without cloquintocet-mexyl safener", "description": "as §1, §2, §3, §4, §5"}, "[13]": {"system": "LOLMU, Lolium multiflorum (Italian ryegrass)", "conditions": "Compound A 10 g/ha, without cloquintocet-mexyl safener", "description": "as §1, §2, §3, §4, §5"}, "[14]": {"system": "MATCH, Matricaria chamomilla (wild chamomile)", "description": "as §1, §2, §3, §4, §5"}, "[15]": {"system": "SASKR, Salsola kali (Russian thistle)", "description": "as §1, §2, §3, §4, §5"}, "[16]": {"system": "SINAR, Sinapis arvensis (wild mustard)", "description": "as §1, §2, §3, §4, §5"}, "[17]": {"system": "SORVU, Sorghum vulgare (grain sorghum)", "description": "as §1, §2, §3, §4, §5"}, "[18]": {"system": "STEME, Stellaria media (chickweed)", "conditions": "STEME, Compound A 10 g/ha", "description": "as §1, §2, §3, §4, §5"}, "[19]": {"system": "VIOTR, Viola tricolor (wild pansy)", "description": "as §1, §2, §3, §4, §5"}, "[20]": {"conditions": "without cloquintocet-mexyl safener"}}, "note": "Where “and” joins values, the source holds several entries; their conditions need not be identical. Equal entries are not always repeated.", "data": [{"smiles": "N#CCOC(=O)c1nc(-c2ccc3cc[nH]c3c2F)c(F)c(N)c1Cl", "note": "[Compound A, cyanomethyl 4-amino-3-chloro-5-fluoro-6-(7-fluoro-1H-indol-6-yl)pyridine-2-carboxylate]", "values": [{"measurement": "visual injury", "setting": "[1]; 7.5 g ae/ha alone", "result": 68, "unit": "%"}, {"measurement": "visual injury", "setting": "[1]; 10 g ae/ha alone", "result": 80, "unit": "%"}, {"measurement": "% visual injury, Obs", "setting": "[1]", "result": 80, "unit": "%"}, {"measurement": "% visual injury, Obs", "setting": "[1]; [20]", "result": 75, "unit": "%"}, {"measurement": "visual injury", "setting": "[2]; 7.5 g ae/ha alone", "result": 0, "unit": "%"}, {"measurement": "visual injury", "setting": "[2]; 10 g ae/ha alone", "result": 0, "unit": "%"}, {"measurement": "% visual injury, Obs", "setting": "[2]; AVEFA, Compound A 10 g/ha, without cloquintocet-mexyl safener", "result": 0, "unit": "%"}, {"measurement": "visual injury", "setting": "[3]; 10 g ae/ha alone", "result": "60% and 45% and 73%"}, {"measurement": "% visual injury, Obs", "setting": "[3]; BRSNN, Compound A 10 g/ha", "result": 65, "unit": "%"}, {"measurement": "visual injury", "setting": "[4]; 7.5 g ae/ha alone", "result": "35% and 63%"}, {"measurement": "visual injury", "setting": "[4]; 10 g ae/ha alone", "result": "43% and 68% and 40%"}, {"measurement": "% visual injury, Obs", "setting": "[4]; BRSNW, Compound A 10 g/ha, without cloquintocet-mexyl safener", "result": 65, "unit": "%"}, {"measurement": "visual injury", "setting": "[5]; 7.5 g ae/ha alone", "result": "88% and 70% and 75%"}, {"measurement": "visual injury", "setting": "[5]; 10 g ae/ha alone", "result": "93% and 83% and 78% and 80%"}, {"measurement": "visual injury", "setting": "[6]; 10 g ae/ha alone", "result": "40% and 60% and 30% and 55%"}, {"measurement": "% visual injury, Obs", "setting": "[6]", "result": 60, "unit": "%"}, {"measurement": "% visual injury, Obs", "setting": "[6]; [20]", "result": 28, "unit": "%"}, {"measurement": "% visual injury, Obs", "setting": "[7]", "result": 8, "unit": "%"}, {"measurement": "% visual injury, Obs", "setting": "[7]; [20]", "result": 0, "unit": "%"}, {"measurement": "% visual injury, Obs", "setting": "[8]", "result": 8, "unit": "%"}, {"measurement": "% visual injury, Obs", "setting": "[9]", "result": 58, "unit": "%"}, {"measurement": "visual injury", "setting": "[10]; 7.5 g ae/ha alone", "result": 20, "unit": "%"}, {"measurement": "visual injury", "setting": "[10]; 10 g ae/ha alone", "result": 25, "unit": "%"}, {"measurement": "% visual injury, Obs", "setting": "[10]; IPOHE, Compound A 10 g/ha, without cloquintocet-mexyl safener", "result": 15, "unit": "%"}, {"measurement": "visual injury", "setting": "[11]; 7.5 g ae/ha alone", "result": "63% and 50% and 65% and 70%"}, {"measurement": "visual injury", "setting": "[11]; 10 g ae/ha alone", "result": "63% and 58% and 70%"}, {"measurement": "% visual injury, Obs", "setting": "[11]; KCHSC, Compound A 10 g/ha, without cloquintocet-mexyl safener", "result": 88, "unit": "%"}, {"measurement": "% visual injury, Obs", "setting": "[12]", "result": 0, "unit": "%"}, {"measurement": "% visual injury, Obs", "setting": "[13]", "result": 0, "unit": "%"}, {"measurement": "visual injury", "setting": "[14]; 7.5 g ae/ha alone", "result": "20% and 18% and 10%"}, {"measurement": "visual injury", "setting": "[14]; 10 g ae/ha alone", "result": "30% and 20%"}, {"measurement": "visual injury", "setting": "[15]; 7.5 g ae/ha alone", "result": "60% and 45%"}, {"measurement": "visual injury", "setting": "[15]; 10 g ae/ha alone", "result": "63% and 60%"}, {"measurement": "visual injury", "setting": "[16]; 7.5 g ae/ha alone", "result": "88% and 85% and 83%"}, {"measurement": "visual injury", "setting": "[16]; 10 g ae/ha alone", "result": "90% and 92% and 88%"}, {"measurement": "visual injury", "setting": "[17]; 7.5 g ae/ha alone", "result": 0, "unit": "%"}, {"measurement": "visual injury", "setting": "[17]; 10 g ae/ha alone", "result": 0, "unit": "%"}, {"measurement": "% visual injury, Obs", "setting": "[17]; SORVU, Compound A 10 g/ha, without cloquintocet-mexyl safener", "result": 0, "unit": "%"}, {"measurement": "% visual injury, Obs", "setting": "[18]", "result": 90, "unit": "%"}, {"measurement": "% visual injury, Obs", "setting": "[18]; [20]", "result": 88, "unit": "%"}, {"measurement": "visual injury", "setting": "[19]; 7.5 g ae/ha alone", "result": 45, "unit": "%"}, {"measurement": "visual injury", "setting": "[19]; 10 g ae/ha alone", "result": 15, "unit": "%"}, {"measurement": "% visual injury, Obs", "setting": "[19]; VIOTR, Compound A 10 g/ha, without cloquintocet-mexyl safener", "result": 15, "unit": "%"}]}]}
